Laboratory results taken from ChEMBL document CHEMBL5620438, “Noducyclamides A1-A4, B1, and B2 from the Cyanobacterium Nodularia sp. NIES-3585” (J Nat Prod, 2024).
Converted amounts (≈) assume the structure as drawn. The source made the active and inactive calls. The rule behind the calls is not given here.

Experiments:
[1] = test system: MCF7; test: Cytotoxicity against human MCF7 cells assessed as decrease in cell viability incubated for 72 hrs by MTT assay; type: functional, cell-based; details: MCF7, 72 h
[2] = test system: MCF7; test: Synergistic cytotoxicity against human MCF7 cells assessed as reduction in cell viability incubated for 72 hrs by MTT assay in presence of Noducyclamide B1; type: functional, cell-based

| Structure (SMILES) | IC50 [1] [µg/mL] | Activity [2] |
| --- | --- | --- |
| CCCCCCC[C@@H]1CC(=O)N[C@@H](C(C)C)C(=O)N[C@H]([C@@H](O)C(C)C)C(=O)N[C@@H](C)C(=O)N[C@H]([C@@H](O)C(C)C)C(=O)N[C@@H](CCC(N)=O)C(=O)N(C)[C@@H]([C@@H](C)CC)C(=O)N[C@H](CC(N)=O)C(=O)N[C@H]([C@H](C)O)C(=O)N2C[C@H](O)C[C@H]2C(=O)N[C@H](C(C)C)C(=O)N[C@@H]([C@@H](C)O)C(=O)N1 | 3 (≈ 2.17 µM) | – |
| CCCCCCC[C@@H]1CC(=O)N[C@@H](CCC(N)=O)C(=O)N2C[C@H](O)C[C@H]2C(=O)N2C[C@H](O)C[C@H]2C(=O)N[C@@H](Cc2ccc(O)cc2)C(=O)N[C@H](CC(C)C)C(=O)N[C@@H](C(C)C)C(=O)N[C@H](C(C)(C)O)C(=O)N[C@@H](CC(C)C)C(=O)NCC(=O)N1 | 18 (≈ 15.2 µM) | inactive |
| CCCCCCC[C@@H]1CC(=O)N[C@@H](CCC(N)=O)C(=O)N2C[C@H](O)C[C@H]2C(=O)N2CCC[C@H]2C(=O)N[C@@H](Cc2ccc(O)cc2)C(=O)N[C@H](CC(C)C)C(=O)N[C@@H](C(C)C)C(=O)N[C@H](C(C)(C)O)C(=O)N[C@@H](CC(C)C)C(=O)NCC(=O)N1 | 9.6 (≈ 8.22 µM) | inactive |
